Experimental data: patent US12552783B2, “Modulators of proteolysis and associated methods of use” (Arvinas Operations, Inc., priority 2018, dated 2026)

Biological target: KRas (Homo sapiens, UniProt P01116, G12C)
Assay: KRas degradation in SW1573 cells by Western blot, normalized to GAPDH (data of Table 14)
Format: cell-based
Settings: SW1573 cells
How it was run: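 SW1573 cells, homozygous for the KRas G12C mutation and maintained in DMEM with 10% FBS and 1% penicillin-streptomycin, were seeded in 12-well plates, allowed to attach overnight at 37° C. under 5% CO2, then serum-starved for 24 hours before compound exposure. KRas levels were measured by Western blot, normalized to GAPDH, and compared with DMSO controls to give percent degradation, DC50 and Dmax.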

Compound	Percent Degradation at Indicated Concentration (μM) (0.03 μM)	Percent Degradation at Indicated Concentration (μM) (0.1 μM)	Percent Degradation at Indicated Concentration (μM) (0.3 μM)	Percent Degradation at Indicated Concentration (μM) (1 μM)	Percent Degradation at Indicated Concentration (μM) (3 μM)
C=CC(=O)N1CCN(c2nc(O[C@H](C)CN3CCC(OCCOc4cc([C@@H](C(=O)N5C[C@H](O)C[C@H]5C(=O)N[C@@H](C)c5ccc(-c6scnc6C)cc5)C(C)C)on4)CC3)nc3c(F)c(-c4cc(O)cc5ccccc45)c(Cl)cc23)CC1 [compound 524, (2S,4R)-1-((2S)-2-(3-(2-((1-((2R)-2-((4-(4-acryloylpiperazin-1-yl)-6-chloro-8-fluoro-7-(3-hydroxynaphthalen-1-yl)quinazolin-2-yl)oxy)propyl)piperidin-4-yl)oxy)ethoxy)isoxazol-5-yl)-3-methylbutanoyl)-4-hydroxy-N-((S)-1-(4-(4-methylthiazol-5-yl)phenyl)ethyl)pyrrolidine-2-carboxamide]	C (Percent Degradation: C ≤ 35)	C (Percent Degradation: C ≤ 35)	C (Percent Degradation: C ≤ 35)		
C=CC(=O)N1CCN(c2nc(O[C@H](C)CN3CCC(OCCOCCOc4cc([C@@H](C(=O)N5C[C@H](O)C[C@H]5C(=O)N[C@@H](C)c5ccc(-c6scnc6C)cc5)C(C)C)on4)CC3)nc3c(F)c(-c4cc(O)cc5ccccc45)c(Cl)cc23)CC1 [compound 526, (2S,4R)-1-((2S)-2-(3-(2-(2-((1-((2R)-2-((4-(4-acryloylpiperazin-1-yl)-6-chloro-8-fluoro-7-(3-hydroxynaphthalen-1-yl)quinazolin-2-yl)oxy)propyl)piperidin-4-yl)oxy)ethoxy)ethoxy)isoxazol-5-yl)-3-methylbutanoyl)-4-hydroxy-N-((S)-1-(4-(4-methylthiazol-5-yl)phenyl)ethyl)pyrrolidine-2-carboxamide]	C (Percent Degradation: C ≤ 35)	C (Percent Degradation: C ≤ 35)	C (Percent Degradation: C ≤ 35)		
C=CC(=O)N1CCN(c2nc(O[C@H](C)CN3CCC(OCCOCCOc4cc([C@H](C(=O)N5C[C@H](O)C[C@H]5C(=O)N[C@@H](C)c5ccc(-c6scnc6C)cc5)C(C)C)on4)CC3)nc3c(F)c(-c4cc(O)cc5ccccc45)c(Cl)cc23)CC1 [compound 527, (2S,4R)-1-((2R)-2-(3-(2-(2-((1-((2R)-2-((4-(4-acryloylpiperazin-1-yl)-6-chloro-8-fluoro-7-(3-hydroxynaphthalen-1-yl)quinazolin-2-yl)oxy)propyl)piperidin-4-yl)oxy)ethoxy)ethoxy)isoxazol-5-yl)-3-methylbutanoyl)-4-hydroxy-N-((S)-1-(4-(4-methylthiazol-5-yl)phenyl)ethyl)pyrrolidine-2-carboxamide]	C (Percent Degradation: C ≤ 35)	C (Percent Degradation: C ≤ 35)	C (Percent Degradation: C ≤ 35)		
C=CC(=O)N1CCN(c2nc(O[C@H](C)CN3CCC(OCCOCCOCCOc4cc([C@H](C(=O)N5C[C@H](O)C[C@H]5C(=O)N[C@@H](C)c5ccc(-c6scnc6C)cc5)C(C)C)on4)CC3)nc3c(F)c(-c4cc(O)cc5ccccc45)c(Cl)cc23)CC1 [compound 529, (2S,4R)-1-((2R)-2-(3-(2-(2-(2-((1-((2R)-2-((4-(4-acryloylpiperazin-1-yl)-6-chloro-8-fluoro-7-(3-hydroxynaphthalen-1-yl)quinazolin-2-yl)oxy)propyl)piperidin-4-yl)oxy)ethoxy)ethoxy)ethoxy)isoxazol-5-yl)-3-methylbutanoyl)-4-hydroxy-N-((S)-1-(4-(4-methylthiazol-5-yl)phenyl)ethyl)pyrrolidine-2-carboxamide]	C (Percent Degradation: C ≤ 35)	C (Percent Degradation: C ≤ 35)	C (Percent Degradation: C ≤ 35)		
C=CC(=O)N1CCN(c2nc(O[C@H](C)CN3CCC(OCCOCCOCCOCCOc4cc([C@H](C(=O)N5C[C@H](O)C[C@H]5C(=O)N[C@@H](C)c5ccc(-c6scnc6C)cc5)C(C)C)on4)CC3)nc3c(F)c(-c4cc(O)cc5ccccc45)c(Cl)cc23)CC1 [compound 530, (2S,4R)-1-((2R)-2-(3-(2-(2-(2-(2-((1-((2R)-2-((4-(4-acryloylpiperazin-1-yl)-6-chloro-8-fluoro-7-(3-hydroxynaphthalen-1-yl)quinazolin-2-yl)oxy)propyl)piperidin-4-yl)oxy)ethoxy)ethoxy)ethoxy)ethoxy)isoxazol-5-yl)-3-methylbutanoyl)-4-hydroxy-N-((S)-1-(4-(4-methylthiazol-5-yl)phenyl)ethyl)pyrrolidine-2-carboxamide]	C (Percent Degradation: C ≤ 35)	C (Percent Degradation: C ≤ 35)	C (Percent Degradation: C ≤ 35)		
C=CC(=O)N1CCN(c2nc(O[C@H](C)CN3CCC(OCCOCCOCCOCCOc4cc([C@@H](C(=O)N5C[C@H](O)C[C@H]5C(=O)N[C@@H](C)c5ccc(-c6scnc6C)cc5)C(C)C)on4)CC3)nc3c(F)c(-c4cc(O)cc5ccccc45)c(Cl)cc23)CC1 [compound 531, (2S,4R)-1-((2S)-2-(3-(2-(2-(2-(2-((1-((2R)-2-((4-(4-acryloylpiperazin-1-yl)-6-chloro-8-fluoro-7-(3-hydroxynaphthalen-1-yl)quinazolin-2-yl)oxy)propyl)piperidin-4-yl)oxy)ethoxy)ethoxy)ethoxy)ethoxy)isoxazol-5-yl)-3-methylbutanoyl)-4-hydroxy-N-((S)-1-(4-(4-methylthiazol-5-yl)phenyl)ethyl)pyrrolidine-2-carboxamide]	C (Percent Degradation: C ≤ 35)	C (Percent Degradation: C ≤ 35)	C (Percent Degradation: C ≤ 35)		
Cc1ncsc1-c1ccc([C@H](C)NC(=O)[C@@H]2C[C@@H](O)CN2C(=O)[C@@H](NC(=O)COCCOCCOCCOCCO[C@@H]2C[C@@H](COc3nc4c(c(N5CCN(C(N)=O)[C@@H](CC#N)C5)n3)CCN(c3cccc5ccccc35)C4)N(C)C2)C(C)(C)C)cc1 [compound 537, (S)-2-(cyanomethyl)-4-(2-(((2S,4R)-4-(((S)-16-((2S,4R)-4-hydroxy-2-(((S)-1-(4-(4-methylthiazol-5-yl)phenyl)ethyl)carbamoyl)pyrrolidine-1-carbonyl)-17,17-dimethyl-14-oxo-3,6,9,12-tetraoxa-15-azaoctadecyl)oxy)-1-methylpyrrolidin-2-yl)methoxy)-7-(naphthalen-1-yl)-5,6,7,8-tetrahydropyrido[3,4-d]pyrimidin-4-yl)piperazine-1-carboxamide]			C (Percent Degradation: C ≤ 35)	C (Percent Degradation: C ≤ 35)	C (Percent Degradation: C ≤ 35)

Other lines, results leading:

Percent Degradation at Indicated Concentration (μM) (0.03 μM)	Percent Degradation at Indicated Concentration (μM) (0.1 μM)	Percent Degradation at Indicated Concentration (μM) (0.3 μM)	Percent Degradation at Indicated Concentration (μM) (1 μM)	Percent Degradation at Indicated Concentration (μM) (3 μM)	Compound
C (Percent Degradation: C ≤ 35)	C (Percent Degradation: C ≤ 35)	C (Percent Degradation: C ≤ 35)			C=CC(=O)N1CCN(c2nc(O[C@H](C)CN3CCC(OCCOc4cc([C@H](C(=O)N5C[C@H](O)C[C@H]5C(=O)N[C@@H](C)c5ccc(-c6scnc6C)cc5)C(C)C)on4)CC3)nc3c(F)c(-c4cc(O)cc5ccccc45)c(Cl)cc23)CC1 [compound 525, (2S,4R)-1-((2R)-2-(3-(2-((1-((2R)-2-((4-(4-acryloylpiperazin-1-yl)-6-chloro-8-fluoro-7-(3-hydroxynaphthalen-1-yl)quinazolin-2-yl)oxy)propyl)piperidin-4-yl)oxy)ethoxy)isoxazol-5-yl)-3-methylbutanoyl)-4-hydroxy-N-((S)-1-(4-(4-methylthiazol-5-yl)phenyl)ethyl)pyrrolidine-2-carboxamide]
C (Percent Degradation: C ≤ 35)	C (Percent Degradation: C ≤ 35)	C (Percent Degradation: C ≤ 35)			C=CC(=O)N1CCN(c2nc(O[C@H](C)CN3CCC(OCCOCCOCCOc4cc([C@@H](C(=O)N5C[C@H](O)C[C@H]5C(=O)N[C@@H](C)c5ccc(-c6scnc6C)cc5)C(C)C)on4)CC3)nc3c(F)c(-c4cc(O)cc5ccccc45)c(Cl)cc23)CC1 [compound 528, (2S,4R)-1-((2S)-2-(3-(2-(2-(2-((1-((2R)-2-((4-(4-acryloylpiperazin-1-yl)-6-chloro-8-fluoro-7-(3-hydroxynaphthalen-1-yl)quinazolin-2-yl)oxy)propyl)piperidin-4-yl)oxy)ethoxy)ethoxy)ethoxy)isoxazol-5-yl)-3-methylbutanoyl)-4-hydroxy-N-((S)-1-(4-(4-methylthiazol-5-yl)phenyl)ethyl)pyrrolidine-2-carboxamide]
C (Percent Degradation: C ≤ 35)	C (Percent Degradation: C ≤ 35)	C (Percent Degradation: C ≤ 35)	C (Percent Degradation: C ≤ 35)	C (Percent Degradation: C ≤ 35)	CN1C[C@H](OCCOCCOc2ccc3c(c2)C(=O)N(C2CCC(=O)NC2=O)C3=O)C[C@H]1COc1nc2c(c(N3CCN(C(N)=O)[C@@H](CC#N)C3)n1)CCN(c1cccc3ccccc13)C2 (stereo partly drawn) [compound 539, (2S)-2-(cyanomethyl)-4-(2-(((2S,4R)-4-(2-(2-((2-(2,6-dioxopiperidin-3-yl)-1,3-dioxoisoindolin-5-yl)oxy)ethoxy)ethoxy)-1-methylpyrrolidin-2-yl)methoxy)-7-(naphthalen-1-yl)-5,6,7,8-tetrahydropyrido[3,4-d]pyrimidin-4-yl)piperazine-1-carboxamide]
